From ChEMBL document CHEMBL4342442, “Usnic Acid Enaminone-Coupled 1,2,3-Triazoles as Antibacterial and Antitubercular Agents” (J Nat Prod, 2020)
The source made the active and inactive calls. The rule behind the calls is not given here.

Tests used:
[1] = system: Mycobacterium tuberculosis; assay: Antitubercular activity against Mycobacterium tuberculosis H37Rv assessed as reduction in microbial growth after 7 days by alamar blue assay; type: functional; settings: 168 h
[2] = system: Mycobacterium tuberculosis; assay: Antitubercular activity against Mycobacterium tuberculosis H37Rv assessed as log reduction in bacterial population at 10 ug/ml under starvation condition after 7 days by MPN assay; type: functional
[3] = system: Staphylococcus aureus; assay: Antibacterial activity against Staphylococcus aureus MTCC 96 assessed as diameter of zone of inhibition at 200 ug/ml after 24 hrs by agar well diffusion method; type: functional
[4] = system: Staphylococcus epidermidis; assay: Antibacterial activity against Staphylococcus epidermidis assessed as diameter of zone of inhibition at 200 ug/ml after 24 hrs by agar well diffusion method; type: functional
[5] = system: Bacillus subtilis; assay: Antibacterial activity against Bacillus subtilis MTCC 441 assessed as diameter of zone of inhibition at 200 ug/ml after 24 hrs by agar well diffusion method; type: functional; settings: MTCC 441, 24 h, read-out: DIZ
[6] = system: Escherichia coli; assay: Antibacterial activity against Escherichia coli MTCC 443 assessed as diameter of zone of inhibition at 200 ug/ml after 24 hrs by agar well diffusion method; type: functional
[7] = system: Pseudomonas aeruginosa; assay: Antibacterial activity against Pseudomonas aeruginosa MTCC 741 assessed as diameter of zone of inhibition at 200 ug/ml after 24 hrs by agar well diffusion method; type: functional
[8] = system: Klebsiella pneumoniae; assay: Antibacterial activity against Klebsiella pneumoniae MTCC 618 assessed as diameter of zone of inhibition at 200 ug/ml after 24 hrs by agar well diffusion method; type: functional
[9] = system: Staphylococcus aureus; assay: Antibacterial activity against Staphylococcus aureus MTCC 96 assessed as reduction in microbial growth after 24 hrs by CLSI based microdilution method; type: functional; settings: MTCC 96, 24 h
[10] = system: Staphylococcus epidermidis; assay: Antibacterial activity against Staphylococcus epidermidis assessed as reduction in microbial growth after 24 hrs by CLSI based microdilution method; type: functional
[11] = system: Bacillus subtilis; assay: Antibacterial activity against Bacillus subtilis MTCC 441 assessed as reduction in microbial growth after 24 hrs by CLSI based microdilution method; type: functional; settings: MTCC 441, 24 h
[12] = system: Escherichia coli; assay: Antibacterial activity against Escherichia coli MTCC 443 assessed as reduction in microbial growth after 24 hrs by CLSI based microdilution method; type: functional; settings: MTCC 443, 24 h
[13] = system: Pseudomonas aeruginosa; assay: Antibacterial activity against Pseudomonas aeruginosa MTCC 741 assessed as reduction in microbial growth after 24 hrs by CLSI based microdilution method; type: functional; settings: MTCC 741, 24 h
[14] = system: Klebsiella pneumoniae; assay: Antibacterial activity against Klebsiella pneumoniae MTCC 618 assessed as reduction in microbial growth after 24 hrs by CLSI based microdilution method; type: functional; settings: MTCC 618, 24 h
[15] = system: CHO-K1; assay: Cytotoxicity against CHOK1 cells assessed as reduction in cell viability after 24 hrs by MTT assay; type: cell-based; settings: Cricetulus griseus, CHO-K1, 24 h
[16] = Cytotoxicity against HEK cells assessed as reduction in cell viability after 24 hrs by MTT assay; type: cell-based, Homo sapiens
[17] = Homo sapiens, HEK293, 24 h, read-out: IC50

| SMILES | MIC [1] | FC [2] | diameter of the inhibition zone (DIZ) [3] | diameter of the inhibition zone (DIZ) [4] | zone of inhibition at 200 µg/mL [5] | diameter of the inhibition zone (DIZ) [6] | diameter of the inhibition zone (DIZ) [7] | diameter of the inhibition zone (DIZ) [8] | MIC [9] | MIC [10] | MIC [11] | MIC [12] | MIC [13] | MIC [14] | IC50 [15] | IC50 [16] | IC50 [16, 17] |
| --- | --- | --- | --- | --- | --- | --- | --- | --- | --- | --- | --- | --- | --- | --- | --- | --- | --- |
| CC(=O)c1c(O)c(C)c(O)c2c1OC1=CC(=O)/C(=C(/C)NCc3cn(CC(=O)c4ccc5ccccc5c4)nn3)C(=O)C12C (stereo unspecified) | 5.3 µM | 2.1 | inactive | inactive | 11 mm | inactive | inactive | inactive | > 350 µM | > 350 µM | 169 µM | > 350 µM | > 350 µM | > 350 µM | 67.4 µM | Non-Toxic |  |
| CC(=O)c1c(O)c(C)c(O)c2c1OC1=CC(=O)/C(=C(/C)NCc3cn(CC(=O)c4ccc(F)c(F)c4)nn3)C(=O)C12C (stereo unspecified) | 5.4 µM | 2.5 | inactive | inactive | 12 mm | inactive | inactive | inactive | > 350 µM | > 350 µM | 173 µM | > 350 µM | > 350 µM | > 350 µM | 53.4 µM |  | 52 µM |
| CC(=O)c1c(O)c(C)c(O)c2c1OC1=CC(=O)/C(=C(/C)NCc3cn(CCN4C(=O)c5ccccc5S4(=O)=O)nn3)C(=O)C12C (stereo unspecified) | 2.5 µM | 2.8 |  |  |  |  |  |  |  |  |  |  |  |  | 12.1 µM |  | 91.8 µM |
| COc1ccccc1N1CCN(C(=O)Cn2cc(CN/C(C)=C3\C(=O)C=C4Oc5c(C(C)=O)c(O)c(C)c(O)c5C4(C)C3=O)nn2)CC1 (stereo unspecified) | 9.5 µM |  | inactive | inactive | 10 mm | inactive | inactive | inactive | > 350 µM | > 350 µM | 305 µM | > 350 µM | > 350 µM | > 350 µM | 40.4 µM | Non-Toxic |  |
| CC(=O)c1c(O)c(C)c(O)c2c1OC1=CC(=O)/C(=C(/C)NCc3cn(CC(=O)c4c(F)c(F)c(F)c(F)c4F)nn3)C(=O)C12C (stereo unspecified) | 39.5 µM |  | inactive | inactive | 12 mm | inactive | inactive | inactive | > 350 µM | > 350 µM | 158 µM | > 350 µM | > 350 µM | > 350 µM | 67.6 µM | Non-Toxic |  |
